Test results from patent publication US11083789B2, “IVIG treatments for Bell's palsy” (InnoMed Technologies, Inc., priority 2019, dated 2021).

Key:
Bell's Palsy [1] = conditions: prednisolone 60 mg per day for 5 days then reduced by 10 mg per day, and 50 mg per day for 10 days; cited from earlier work
Bell's Palsy [2] = assay: Example 2: treatment of a person suffering from Bell's Palsy; type: in vivo, human; conditions: 60 mg/day prednisone therapy alone for a month
Experimental: The patient, a person is diagnosed by their doctor as suffering from Bell's Palsy. […] The patient is then administered IVIG at 2 g/kg and 60 mg prednisone. Within three weeks, the Bell's Palsy is resolved by about 80%. The patient is then administered a second dose of IVIG at 2 g/kg and 60 mg. prednisone. Within two weeks, the patient is resolved by about 95%.

Bell's Palsy [3] = assay: Example 1: treatment of person suffering from Bell's Palsy; type: in vivo, human; conditions: 60 mg/day prednisone therapy alone, two weeks
Experimental: The patient, a person was diagnosed by their doctor after claiming they are suffering from unexplained facial weakness. The patient's doctor diagnosed the patient as suffering from Bell's Palsy. […] Two weeks after administration, the patient is co-administered a single dose of IVIG at 2 g/kg and 60 mg prednisone and Bell's Palsy related symptoms the patient suffered from are reduced by 70% within two weeks from the co-administration.

C[C@]12C=CC(=O)C=C1CC[C@@H]1[C@@H]2[C@@H](O)C[C@@]2(C)[C@H]1CC[C@]2(O)C(=O)CO [prednisolone]
outcome in patients with Bell's palsy (Bell's Palsy [1]): improves outcome | time to complete recovery (Bell's Palsy [1]): shortens the time to complete recovery

C[C@]12C=CC(=O)C=C1CC[C@@H]1[C@@H]2C(=O)C[C@@]2(C)[C@H]1CC[C@]2(O)C(=O)CO [prednisone]
resolution of Bell's Palsy (Bell's Palsy [2]): did not resolve | reduction in the symptoms of Bell's Palsy (Bell's Palsy [3]): no reduction
